Reference: patent US10065990B2, “Cyclic peptide compound, and preparation method, pharmaceutical composition and use thereof” (HANGZHOU GUANYU BIO-MEDICAL CO., LTD, priority 2013, dated 2018)
Read-outs that look alike come from different tables or passages of the source.

Experiments:
HDAC1 = HDAC1 (Homo sapiens, UniProt Q13547); experiment: HDAC biochemical activity measurement (fluorescent substrate deacetylation);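 also: fluorogenic acetyl-lysine substrate (20 µM) deacetylated by HDAC1, then developer releases fluorophore read at 360 nm excitation and 460 nm emission, inhibitor incubated 30 min at 37 °C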
Sequence of HDAC1 (Q13547 whole entry, species assumed): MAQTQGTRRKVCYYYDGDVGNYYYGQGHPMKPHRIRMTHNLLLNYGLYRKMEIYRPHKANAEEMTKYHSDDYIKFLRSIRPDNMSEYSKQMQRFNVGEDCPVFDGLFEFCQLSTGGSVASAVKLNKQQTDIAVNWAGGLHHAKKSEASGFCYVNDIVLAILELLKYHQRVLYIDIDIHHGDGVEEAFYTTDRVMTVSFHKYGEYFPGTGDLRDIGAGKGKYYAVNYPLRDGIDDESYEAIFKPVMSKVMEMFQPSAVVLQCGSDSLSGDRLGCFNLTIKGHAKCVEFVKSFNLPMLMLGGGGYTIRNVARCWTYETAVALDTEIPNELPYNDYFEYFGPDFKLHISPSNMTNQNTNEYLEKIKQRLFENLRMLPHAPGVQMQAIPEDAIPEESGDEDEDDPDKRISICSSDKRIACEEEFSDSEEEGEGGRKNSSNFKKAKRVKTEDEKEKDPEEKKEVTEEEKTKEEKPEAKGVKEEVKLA

[1] = tested on: A549 (human lung cancer cells); experiment: MTT cancer cell growth inhibition; type: cell-based; conditions: MTT, 72 hours incubation, read-out: GI50 A54
Outline: (§1)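 72 h exposure, final drug 10^−5–10^−10 M, triplicate wells; 1500 cells/well plated the day before; medium DMEM or 1640 + 10% FBS; 37° C./5% CO2. MTT (5 mg/ml stock) 4 h, DMSO solubilisation, A570 → % viability → GI50.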

[2] = tested on: BGC-823 (human gastric cancer cells); experiment: MTT cancer cell growth inhibition; type: cell-based; conditions: MTT, 72 hours incubation, read-out: GI50 BG
Outline: as §1

[3] = tested on: Bel-7402 (human hepatoma cells); experiment: MTT cancer cell growth inhibition; type: cell-based; conditions: MTT, 72 hours incubation, Bel-7402 cells, read-out: GI50 Bel-7402
Outline: as §1

[4] = tested on: DU145 (human prostate cancer cells); experiment: MTT cancer cell growth inhibition; type: cell-based; conditions: MTT, 72 hours incubation, read-out: GI50 Du1
Outline: as §1

[5] = tested on: H1975 (non-small cell lung adenocarcinoma); experiment: MTT cancer cell growth inhibition; type: cell-based; conditions: MTT, 72 hours incubation, H1975 cells, read-out: GI50 H1975
Outline: as §1

[6] = tested on: HCC827 (human non-small cell lung cancer cells); experiment: MTT cancer cell growth inhibition; type: cell-based; conditions: MTT, 72 hours incubation, HCC827 cells, read-out: GI50 HCC827
Outline: as §1

[7] = tested on: HT1080 (human fibrosarcoma cells); experiment: MTT cancer cell growth inhibition; type: cell-based; conditions: MTT, 72 hours incubation, read-out: GI50 HT1
Outline: as §1

[8] = tested on: Hela (human cervical cancer cells); experiment: MTT cancer cell growth inhibition; type: cell-based; conditions: MTT, 72 hours incubation, read-out: GI50 Hela
Outline: as §1

[9] = tested on: Huh-7 (human hepatoma cells); experiment: MTT cancer cell growth inhibition; type: cell-based; conditions: MTT, 72 hours incubation, Huh-7 cells, read-out: GI50 Huh-7
Outline: as §1

[10] = tested on: K562 (human leukemia cells); experiment: MTT cancer cell growth inhibition; type: cell-based; conditions: MTT, 72 hours incubation, K562 cells, read-out: GI50 K562
Outline: as §1

[11] = tested on: KBM-5 (human chronic myelogenous leukemia); experiment: MTT cancer cell growth inhibition; type: cell-based; conditions: MTT, 72 hours incubation, KBM-5 cells, read-out: GI50 KBM-5
Outline: as §1

[12] = tested on: KBM5-T315I (human chronic myelogenous leukemia); experiment: MTT cancer cell growth inhibition; type: cell-based; conditions: MTT, 72 hours incubation, KBM5-T315I cells, read-out: GI50 KBM5-T315I
Outline: as §1

[13] = tested on: MCF-7 (human breast cancer cells); experiment: MTT cancer cell growth inhibition; type: cell-based; conditions: 72 hours incubation, read-out: GI50 MCF
Outline: as §1

[14] = tested on: MDA-MB-231 (breast cancer cells); experiment: MTT cancer cell growth inhibition; type: cell-based
Outline: as §1

[15] = tested on: MOLT-4 (human acute lymphoblastic leukemia cells); experiment: MTT cancer cell growth inhibition; type: cell-based; conditions: MTT, 72 hours incubation, read-out: GI50 Mol
Outline: as §1

[16] = tested on: N-87 (human gastric cancer cells); experiment: MTT cancer cell growth inhibition; type: cell-based; conditions: MTT, 72 hours incubation, N-87 cells, read-out: GI50 N-87
Outline: as §1

[17] = tested on: PANC-1 (Pac-1, human pancreatic cancer cells); experiment: MTT cancer cell growth inhibition; type: cell-based; conditions: MTT, 72 hours incubation, read-out: GI50 PAN
Outline: as §1

[18] = tested on: SGC-7901 (human gastric cancer cells); experiment: MTT cancer cell growth inhibition; type: cell-based; conditions: MTT, 72 hours incubation, SGC-7901 cells, read-out: GI50 SGC-7901
Outline: as §1

[19] = tested on: U937 (human leukemia cells); experiment: MTT cancer cell growth inhibition; type: cell-based; conditions: MTT, 72 hours incubation, read-out: GI50 U93
Outline: as §1

[20] = tested on: lncap (prostate cancer cells); experiment: MTT cancer cell growth inhibition; type: cell-based; conditions: MTT, 72 hours incubation, read-out: GI50 lnca
Outline: as §1

HDAC7 = target: T1, HDAC7 (Homo sapiens, UniProt Q8WUI4); experiment: HDAC biochemical activity measurement (fluorescent substrate deacetylation);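 also: fluorogenic deacetylation assay using acetyl-lysine substrate at 20 µM, enzyme and compound incubated 30 min at 37 °C, then developer added, fluorescence read at 360/460 nm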; conditions: HDAC7; 37° C. 30 minutes
T1 sequence (Q8WUI4 1-952): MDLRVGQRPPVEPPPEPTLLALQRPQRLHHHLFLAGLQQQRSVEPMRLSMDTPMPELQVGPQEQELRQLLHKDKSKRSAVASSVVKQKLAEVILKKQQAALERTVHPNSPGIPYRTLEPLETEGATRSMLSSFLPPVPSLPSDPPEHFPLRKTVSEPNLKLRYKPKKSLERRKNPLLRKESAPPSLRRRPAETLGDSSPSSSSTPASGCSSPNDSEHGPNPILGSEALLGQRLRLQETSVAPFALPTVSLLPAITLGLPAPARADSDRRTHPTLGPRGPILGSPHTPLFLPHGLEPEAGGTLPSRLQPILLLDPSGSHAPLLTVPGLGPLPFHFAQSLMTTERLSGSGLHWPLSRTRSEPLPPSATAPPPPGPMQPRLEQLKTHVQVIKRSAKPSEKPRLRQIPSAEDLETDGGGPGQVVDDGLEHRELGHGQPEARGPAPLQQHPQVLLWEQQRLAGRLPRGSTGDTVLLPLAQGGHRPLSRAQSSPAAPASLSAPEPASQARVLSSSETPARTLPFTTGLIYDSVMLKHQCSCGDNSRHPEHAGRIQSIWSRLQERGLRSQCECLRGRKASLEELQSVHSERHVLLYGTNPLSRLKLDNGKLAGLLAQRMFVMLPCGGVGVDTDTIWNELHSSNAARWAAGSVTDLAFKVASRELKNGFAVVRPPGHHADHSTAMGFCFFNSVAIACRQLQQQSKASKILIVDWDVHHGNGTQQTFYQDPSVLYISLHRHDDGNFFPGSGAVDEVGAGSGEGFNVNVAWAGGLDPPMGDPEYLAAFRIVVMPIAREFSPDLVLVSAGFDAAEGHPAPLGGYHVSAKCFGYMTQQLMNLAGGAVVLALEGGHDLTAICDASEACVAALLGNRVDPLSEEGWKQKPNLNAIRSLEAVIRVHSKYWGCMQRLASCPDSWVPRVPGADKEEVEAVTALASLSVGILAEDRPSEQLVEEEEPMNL

[21] = Homo sapiens, MDA-MB-231, 72 h, read-out: GI50 MDA-MB-231, MTT, 72 hours incubation, MDA-MB-231 cells

C/C=C1\NC(=O)c2cc(F)cc(n2)CNC(=O)C[C@@H](/C=C/CCSC(C)=O)OC(=O)[C@H](C)NC1=O [Compound 64]
IC50 (HDAC1; Table 3, column C, read-out: IC50 HDAC1, C (six-membered ring with substituents)): 0.024 µM
GI50 ([1]; Homo sapiens, A549, 72 h): 0.03 µM
GI50 ([2]; Homo sapiens, BGC-823, 72 h): 0.03 µM
GI50 ([3]; Homo sapiens, Bel-7402, 72 h): 0.051 µM
GI50 ([4]; Homo sapiens, DU-145, 72 h): 0.02 µM
GI50 ([5]; Homo sapiens, NCI-H1975, 72 h): 0.038 µM
GI50 ([6]; Homo sapiens, HCC827, 72 h): 0.051 µM
GI50 ([7]; Homo sapiens, HT-1080, 72 h): 0.05 µM
GI50 ([8]; Homo sapiens, HeLa, 72 h): 0.08 µM
GI50 ([9]; Homo sapiens, Huh-7, 72 h): 0.046 µM
GI50 ([10]; Homo sapiens, K562, 72 h): 0.026 µM
GI50 ([11]; Homo sapiens, KBM5, 72 h): 0.082 µM
GI50 ([12]; Homo sapiens, 72 h): 0.022 µM
GI50 ([13]; Homo sapiens, MCF7, 72 h): 0.02 µM
GI50 [14, 21]: 0.046 µM
GI50 ([15]; Homo sapiens, MOLT-4, 72 h): 0.04 µM
GI50 ([16]; Homo sapiens, 72 h): 0.03 µM
GI50 ([17]; Homo sapiens, PANC-1, 72 h): 0.05 µM
GI50 ([18]; Homo sapiens, SGC-7901, 72 h): 0.035 µM
GI50 ([19]; Homo sapiens, U-937, 72 h): 0.03 µM
GI50 ([20]; Homo sapiens, LNCaP, 72 h): 0.04 µM

C/C=C1\NC(=O)c2ccc(SC)c(n2)CNC(=O)C[C@@H](/C=C/CCSC(C)=O)OC(=O)[C@H](C)NC1=O [Compound 215]
IC50 (HDAC1; HDAC1, 37° C. 30 minutes, read-out: IC50 HDAC1): 0.066 µM
IC50 HDAC7 (HDAC7): no activity
GI50 ([1]; A549 cells): 0.05 µM
GI50 ([2]; BGC-823 cells): 0.04 µM
GI50 [3]: 0.019 µM
GI50 ([4]; DU145 cells): 0.03 µM
GI50 [5]: 0.037 µM
GI50 [6]: 0.015 µM
GI50 ([7]; HT1080 cells): 0.02 µM
GI50 ([8]; Hela cells): 0.02 µM
GI50 [9]: 0.065 µM
GI50 [10]: 0.048 µM
GI50 [11]: 0.025 µM
GI50 [12]: 0.042 µM
GI50 ([13]; MCF-7 cells): 0.03 µM
GI50 ([14]; read-out: GI50 MDA-MB-231, MTT, 72 hours incubation, MDA-MB-231 cells): 0.047 µM
GI50 ([15]; MOLT-4 cells): 0.07 µM
GI50 [16]: 0.017 µM
GI50 ([17]; PANC-1 cells): 0.04 µM
GI50 [18]: 0.048 µM
GI50 ([19]; U937 cells): 0.09 µM
GI50 ([20]; lncap cells): 0.1 µM

C/C=C1\NC(=O)c2cc(F)cc(n2)CNC(=O)C[C@@H](/C=C/CCS)OC(=O)[C@H](Cc2cccc3ccccc23)NC1=O [Compound 125]
IC50 HDAC7 (HDAC7): no activity
GI50 ([1]; Homo sapiens, A549, 72 h): 0.06 µM
GI50 ([2]; Homo sapiens, BGC-823, 72 h): 0.03 µM
GI50 ([3]; Homo sapiens, Bel-7402, 72 h): 0.057 µM
GI50 ([4]; Homo sapiens, DU-145, 72 h): 0.03 µM
GI50 ([5]; Homo sapiens, NCI-H1975, 72 h): 0.036 µM
GI50 ([6]; Homo sapiens, HCC827, 72 h): 0.029 µM
GI50 ([7]; Homo sapiens, HT-1080, 72 h): 0.04 µM
GI50 ([8]; Homo sapiens, HeLa, 72 h): 0.05 µM
GI50 ([9]; Homo sapiens, Huh-7, 72 h): 0.025 µM
GI50 ([10]; Homo sapiens, K562, 72 h): 0.047 µM
GI50 ([11]; Homo sapiens, KBM5, 72 h): 0.064 µM
GI50 ([12]; Homo sapiens, 72 h): 0.058 µM
GI50 ([13]; Homo sapiens, MCF7, 72 h): 0.06 µM
GI50 [14, 21]: 0.075 µM
GI50 ([15]; Homo sapiens, MOLT-4, 72 h): 0.11 µM
GI50 ([16]; Homo sapiens, 72 h): 0.031 µM
GI50 ([17]; Homo sapiens, PANC-1, 72 h): 0.12 µM
GI50 ([18]; Homo sapiens, SGC-7901, 72 h): 0.039 µM
GI50 ([19]; Homo sapiens, U-937, 72 h): 0.05 µM
GI50 ([20]; Homo sapiens, LNCaP, 72 h): 0.11 µM

C/C=C1\NC(=O)c2cc(F)cc(n2)CNC(=O)C[C@@H](/C=C/CCSC(=O)CCCCCC)OC(=O)[C@H](C(C)C)NC1=O [Example 34]
IC50 HDAC7 (HDAC7): no activity
GI50 ([1]; Homo sapiens, A549, 72 h): 0.04 µM
GI50 ([2]; Homo sapiens, BGC-823, 72 h): 0.06 µM
GI50 ([3]; Homo sapiens, Bel-7402, 72 h): 0.094 µM
GI50 ([4]; Homo sapiens, DU-145, 72 h): 0.05 µM
GI50 ([5]; Homo sapiens, NCI-H1975, 72 h): 0.034 µM
GI50 ([6]; Homo sapiens, HCC827, 72 h): 0.094 µM
GI50 ([7]; Homo sapiens, HT-1080, 72 h): 0.09 µM
GI50 ([8]; Homo sapiens, HeLa, 72 h): 0.07 µM
GI50 ([9]; Homo sapiens, Huh-7, 72 h): 0.049 µM
GI50 ([10]; Homo sapiens, K562, 72 h): 0.053 µM
GI50 ([11]; Homo sapiens, KBM5, 72 h): 0.074 µM
GI50 ([12]; Homo sapiens, 72 h): 0.053 µM
GI50 ([13]; Homo sapiens, MCF7, 72 h): 0.05 µM
GI50 [14, 21]: 0.049 µM
GI50 ([15]; Homo sapiens, MOLT-4, 72 h): 0.04 µM
GI50 ([16]; Homo sapiens, 72 h): 0.067 µM
GI50 ([17]; Homo sapiens, PANC-1, 72 h): 0.09 µM
GI50 ([18]; Homo sapiens, SGC-7901, 72 h): 0.049 µM
GI50 ([19]; Homo sapiens, U-937, 72 h): 0.03 µM
GI50 ([20]; Homo sapiens, LNCaP, 72 h): 0.04 µM
